Assays:
OVCAR5 xenografts = OVCAR5 xenografts in mice treated with carboplatin; assay type: in vivo; settings: 25 mg/kg carboplatin weekly i.p. for three cycles versus saline
Protocol: Xenografts were obtained through intraperitoneally implantation of 2 million OVCAR5 cells in female (6-8 weeks old) athymic nude mice (Foxn1^nu, Envigo). Two weeks after inoculation, tumor harboring mice were treated with PBS (sensitive group, n=3) or 25 mg/kg carboplatin (resistant group, n=3) via weekly i.p. injection for three cycles. Tumors were collected and weighted one week after the last cycle and frozen. For SRS imaging, tumors were sectioned at […] thickness slices by cryostat. To isolate tumor cells from tissue, PBS and carboplatin treated xenografts were mechanically and enzymatically dissociated in Dulbecco's modified Eagle's medium/F12 (Thermo Fisher Scientific) containing collagenase (300 IU/ml, Sigma-Aldrich) and hyaluronidase (300 IU/ml, Sigma-Aldrich) for 2-4 hours at 37° C. […] To determine whether lipid accumulation also occurs in vivo in platinum-treated tumors, SRS imaging of lipids was performed in OVCAR5 xenografts collected from mice treated weekly with saline or carboplatin for three weeks. Tumor growth was suppressed by carboplatin treatment (FIG. 1N). […] (FIG. 1O). The results shown in FIGS. 1P-1Q indicate heterogenous lipid accumulation and higher lipid amount in the carboplatin-treated tumors compared with the platinum-sensitive tumors. Collectively, higher level of lipid content was a metabolic feature of cisplatin-resistant ovarian cancer cells.

[1] = tested on: platinum resistant PDX model; assay: Platinum resistant patient-derived xenograft (PDX) model; assay type: in vivo; settings: day 14 to 37
Protocol: The platinum resistant PDX model was developed as previously described. After passage through a donor animal, fresh tumor (equal size) was implanted subcutaneously (SC) in 20 female 7-8-week-old NSG mice (Jackson Labs, Cat #: JAX:00555). Tumor sizes were measured using calipers twice per week and tumor volumes were calculated according to the formula length×width^2/2. When the tumor volume reached 100 mm^3, the animals were randomized into four groups: vehicle, carboplatin alone (10 mg/kg weekly intraperitoneal (i.p.) injection), etomoxir alone (40 mg/kg daily i.p. injection), and combination of carboplatin (10 mg/kg weekly i.p. injection) and etomoxir (40 mg/kg daily i.p. injection). Body weights and habitus were monitored twice per week and mice were sacrificed when the largest tumor exceeded 1500 mm^3 or if human endpoints were reached earlier.
A patient-derived xenograft (PDX) model rendered platinum resistant through repeated exposure to carboplatin in vivo as described previously was used to test whether interruption of fatty acid oxidation could sensitize ovarian tumors to platinum in vivo.

OVCAR5-cisR cells [2] = assay: ATP/ADP assay; assay type: cell-based, human; settings: 3.3 μM cisplatin with 100 μM palmitic acid for 6 hours
Protocol: NADP/NADPH and ADP/ATP were measured by using commercial kits (Abcam, #ab65349 and #ab65313). For NADPH measurement, cells (˜1×10^6 cells) were pelleted and extracted using NADPH/NADP extraction buffer. Total NADP/NADPH was directly measured using the assay kit and NADPH alone was measured after decomposing NADP by heating at 60° C. for 30 min. Absorption at 450 nm was measured by plate reader (Molecular Devices, SpectraMax i3x). For ATP measurement, cells were seeded in 96-well plates. ATP was measured directly and total ATP+ADP was measured by converting ADP to ATP. The luminescent signal was measured by plate reader. At least three replicates were included for each measurement.

SKOV3-cisR cells [3] = assay: Large-area hyperspectral SRS imaging of lipids, single cell analysis; assay type: cell-based, human; settings: 10 μM C-75
Protocol: Hyperspectral SRS imaging was performed on a lab-built system following previously published method [8]. The laser source was a femtosecond laser (InSight™ DeepSee™, Spectra-Physics™, Santa Clara, CA, USA) operating at 80 MHz with two synchronized output beams, a tunable pump beam ranging from 680 nm to 1300 nm, and a Stokes beam fixed at 1040 nm. For imaging at the C-H vibration region (2800˜3050 cm^−1), pump beam was tuned to 798 nm. The Stokes beam was modulated at 2.3 MHz by an acousto-optic modulator (1205-C, Isomet®). After combination, both beams were chirped by two 12.7 cm long SF57 glass rods and then sent to a laser-scanning microscope. The power of pump and Stokes beam before microscope was controlled to be 20 mW and 200 mW, respectively. […]
Lipid analysis in single cells were performed through the software CellProfiler™ [68]. […] Morphological information of each cell and lipid analysis, including LD number and intensity in single cells were measured and reported in the output results. […] For each sample, a few hundreds to a thousand of cells were analyzed.
An SRS spectrum was extracted at each pixel from the image stack. […] Finally, quantitative characterization of lipids in terms of integrated intensity, mean intensity, area, and lipid droplet size in each individual cell was performed.

OVCAR5 cells [4] = assay: Cell viability assay (dose-response); assay type: cell-based, human; settings: OVCAR5 cells (sensitive)
Protocol: (§1) Cell viability was measured by MTS assay (Abcam, #ab197010) or by CellTiter-Glo™ assay (Promega, #G7570). Cells were seeded at 96-well plates at densities of 2000˜5000 cells per well overnight. Treatment was added to the cells at indicated concentrations for 72 h. Cell viability was measured by incubating with MTS reagent for 4 h and reading absorbance at 490 nm or incubating with CellTier-Glo™ reagent for 10 min and reading luminescence by a plate reader. Six replicates were used for each group.
(§2) In addition, isogenic PEO1/PEO4 cell lines derived from the same patient were studied, at the time of a platinum sensitive (PEO1) and platinum resistant-recurrence (PEO4).
(§3) Having shown decreased glucose-derived anabolism and increased fatty acid uptake in cisplatin-resistant ovarian cancer cells, whether this metabolic feature can be used for differentiation of cisplatin-resistant from cisplatin-sensitive cancer cells was explored. […] In Table 2 below, quantitation of glucose-d7 (G-d7), PA-d31, and OA-d34 are shown as area fraction of C-D signal out of total cellular area, in mean values.

OVCAR5-cisR cells [5] = assay: Cell viability assay (dose-response); assay type: cell-based, human
Protocol: as §1, §2, §3

PEO1 cells = assay: Cell viability assay (dose-response); assay type: cell-based, human; settings: PEO1 cells (sensitive)
Protocol: as §1, §2, §3

PEO4 cells = assay: Cell viability assay (dose-response); assay type: cell-based, human
Protocol: as §1, §2, §3

SKOV3 cells = assay: Cell viability assay (dose-response); assay type: cell-based, human; settings: SKOV3 cells (sensitive)
Protocol: as §1, §2, §3

SKOV3-cisR cells [6] = assay: Cell viability assay (dose-response); assay type: cell-based, human; settings: SKOV3-cisR cells
Protocol: as §1, §2, §3

OVCAR5-cisR cells [7] = assay: Isotope labeling and SRS imaging; assay type: cell-based, human; settings: BMS 10 μM for 24 hours, 100 μM PA-d31 for 6 hours
Protocol: (§4) For labeling with glucose-d7, media was replaced with glucose-free DMEM medium (Thermo Fisher Scientific, #11966025)+10% FBS+P/S supplemented with 25 mM glucose-d7 after seeding the cells in 35 mm glass-bottom dishes overnight. For labeling with FA or analogs, including PA-d31, OA-d34, and ODYA, FA or analogs were added to the culture media at final concentration of 100 μM and cells were treated for 6 h. For quantitative SRS imaging, cells on glass-bottom dishes were fixed with 10% neutral buffered formalin for 30 min and washed with PBS for 3 times. Hyperspectral SRS imaging was performed to the cells at Raman spectral region from 2100 to 2300 cm^−1.
(§5) To identify the source of increased lipid content in cisplatin-resistant ovarian cancer cells, the contribution of de novo lipogenesis and of fatty acid uptake were examined, respectively. Using a stable isotope probing method, the level of lipogenesis was examined by feeding the cells with deuterium labeled glucose-d7. […] Quantitative analysis confirmed significant reduction of both signal intensity and relative area fraction in PEO4 cells when compared to PEO1 cells (FIG. 2B), indicating a decrease in glucose derived anabolism and de novo lipogenesis in cisplatin-resistant cells. […]

SKOV3-cisR cells [8] = assay: Isotope labeling and SRS imaging; assay type: cell-based, human; settings: BMS 5 μM, 10 μM or 20 μM for 24 hours, 100 μM PA-d31 for 6 hours
Protocol: as §4, §5

COV362-cisR cells = assay: Cell viability assay (dose-response); assay type: cell-based, human
Protocol: as §1, §2, §3

OVCAR5 cells [9] = assay: Fatty acid oxidation assay (extracellular oxygen consumption kit); assay type: cell-based, human; settings: 40 μM etomoxir over 3 hours
Protocol: (§6) Fatty acid oxidation (FAO) was measured using a commercial kit (Abcam, #ab217602) following the provided protocol. Briefly, cells were seeded in 96-well plate with 150 k cells/well. After incubation overnight, medium was replaced. 10 μL of Extracellular O2 consumption reagent, and 2 drops of high-sensitivity mineral oil (pre-heated at 37° C.) were added to each well. Fluorescence was measured in plate reader at 2 min intervals for 180 min at excitation/emission=380/650 nm. Etomoxir was added at final concentration of 40 μM to block FAO. Oxygen consumption rate (OCR) is presented as AFluorescence intensity/Min/cell and FAO rate is calculated as OCRFAO=OCRtotal−OCREtomoxir. At least three replicates were included for each measurement.

OVCAR5-cisR cells [10] = assay: as above; assay type: cell-based, human; settings: 40 μM etomoxir over 3 hours
Protocol: as §6

OVCAR5 cells [11] = assay: OCR and ECAR by Seahorse analysis; assay type: cell-based, human; settings: etomoxir treatment
Protocol: (§7) Cell lines were seeded in a Seahorse® XF96 Cell Culture Microplate (Agilent) at density of 6×10^4 (OVCAR5 pair) or 4×10^4 (PEO pair) per well. After incubation at 37° C. overnight for cell attachment, OCR, and extracellular acidification rate (ECAR) were measured through Seahorse® XFe96 Analyzer (Agilent). Measurement time was 30 seconds following 3 minutes mixture and 30 seconds waiting time. First three cycles were used for basal respiration measurement. […] Basal respiration, ATP production and maximal respiration reduction were calculated following the manufacturer's instructions.

OVCAR5-cisR cells [12] = assay: OCR and ECAR by Seahorse analysis; assay type: cell-based, human; settings: etomoxir treatment
Protocol: as §7

For `N.N.O=C([O-])C1(C(=O)[O-])CCC1.[Pt+2]` [carboplatin], the “Tumor growth (weights of xenografts)” value (OVCAR5 xenografts) was “suppressed” and the “tumor growth (total tumor volume)” value ([1]; carboplatin alone, 10 mg/kg weekly i.p.) was “slight reduction of tumor growth”.

In the case of `CCCCCCCCCCCCCCCC(=O)O` [palmitic acid], the “ATP level (ATP/ADP ratio) on supplementation” value (OVCAR5-cisR cells [2]) was “significantly increased”.

With `C=C1C(=O)OC(CCCCCCCC)C1C(=O)O` (centres unmarked) [C-75] the “increased lipid content in SKOV3-cisR compared with SKOV3” value (SKOV3-cisR cells [3]) was “did not affect the increased lipid content”.

`CCc1c(-c2ccccc2)c(-c2ccccc2)nn1-c1ccccc1-c1cccc(OCC(=O)O)c1` [BMS309403] was tested, and the “dose-response to cisplatin with supplemental BMS treatment” value (OVCAR5 cells [4]) was “less obvious”, the “dose-response to cisplatin with supplemental BMS treatment” value (OVCAR5-cisR cells [5]; OVCAR5-cisR cells) was “reduced resistance to cisplatin” and the “dose-response to cisplatin with supplemental BMS treatment” value (PEO1 cells) was “less obvious”. The “dose-response to cisplatin with supplemental BMS treatment” value (PEO4 cells; PEO4 cells) was “reduced resistance to cisplatin”, the “dose-response to cisplatin with supplemental BMS treatment” value (SKOV3 cells) was “less obvious” and the “dose-response to cisplatin with supplemental BMS treatment” value (SKOV3-cisR cells [6]) was “reduced resistance to cisplatin”. The “PA-d31 uptake (C-D SRS signal intensity)” value (OVCAR5-cisR cells [7]) was “significantly reduced” and the “fatty acid uptake (C-D SRS signal intensity)” value (SKOV3-cisR cells [8]) was “Suppression of fatty acid uptake”.

In the case of `CCOC(=O)[C@@]1(CCCCCCOc2ccc(Cl)cc2)CO1` [etomoxir], the “dose-response to cisplatin curves with etomoxir treatment” value (“dose-response to cisplatin curves” below) (COV362-cisR cells; COV362-cisR cells, etomoxir 40 μM) was “significantly left shifted”, the “dose-response to etomoxir, compared to parental cell line” value (COV362-cisR cells; COV362-cisR versus COV362) was “Higher sensitivity” and the “dose-response to cisplatin curves” value (OVCAR5-cisR cells [5]; OVCAR5-cisR cells, etomoxir 40 μM) was “significantly left shifted”. The “dose-response to etomoxir, compared to parental cell line” value (OVCAR5-cisR cells [5]; OVCAR5-cisR versus OVCAR5) was “Higher sensitivity”, the “dose-response to cisplatin curves” value (PEO4 cells; PEO4 cells, etomoxir 40 μM) was “significantly left shifted” and the “dose-response to etomoxir, compared to parental cell line” value (PEO4 cells; PEO4 versus PEO1) was “Higher sensitivity”. The oxygen consumption (OVCAR5 cells [9]) was “did not induce an obvious change”, the oxygen consumption (OVCAR5-cisR cells [10]) was “significantly reduced” and the “OCR (Seahorse FAO assay)” value (OVCAR5 cells [11]) was “less sensitive”. The “OCR (Seahorse FAO assay)” value (OVCAR5-cisR cells [12]) was “obvious reduction of OCR” and the “tumor growth (total tumor volume)” value ([1]; etomoxir alone, 40 mg/kg daily i.p.) was “slight reduction of tumor growth”.

— patent US12055536B2, “Device for detection of cellular stress” (Trustees of Boston University, priority 2021, dated 2024)
